Measured values taken from ChEMBL document CHEMBL1201862, “PubChem BioAssay data set” (2004).
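Values below derive from 48-hour exposures of cells grown in 96-well plates, with endpoints linearly interpolated between the two concentrations bracketing the appropriate inhibition level. GI50 marks 50% less growth.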 Calls of active or inactive are those of the source. Rule as the data show it: active = GI50 up to about 1.1 µM and inactive = higher.

Experiments:
Assay in all cases: DTP human tumour cell line panel, 48 h
LOX IMVI = test system: LOX IMVI
RXF 631 = test system: RXF 631
HCT-116 = test system: HCT-116
K562 = test system: K562
COLO 205 = test system: COLO 205
Malme-3M = test system: Malme-3M
SK-OV-3 = test system: SK-OV-3
RPMI-8226 = test system: RPMI-8226
SK-MEL-2 = test system: SK-MEL-2
SK-MEL-28 = test system: SK-MEL-28
CCRF-CEM = test system: CCRF-CEM
DMS-114 = test system: DMS-114
DLD-1 = test system: DLD-1
KM-20L2 = test system: KM-20L2
LXFL 529 = test system: LXFL 529
M14 = test system: M14
NCI-H522 = test system: NCI-H522
MOLT-4 = test system: MOLT-4
SW-620 = test system: SW-620
DMS-273 = test system: DMS-273
UACC-62 = test system: UACC-62
HCC 2998 = test system: HCC 2998
CAKI-1 = test system: CAKI-1
NCI-H23 = test system: NCI-H23
SF-268 = test system: SF-268
SNB-19 = test system: SNB-19
UO-31 = test system: UO-31
786-0 = test system: 786-0
A549 = test system: A549
HT-29 = test system: HT-29
U-251 = test system: U-251
A498 = test system: A498
OVCAR-8 = test system: OVCAR-8
OVCAR-5 = test system: OVCAR-5
SK-MEL-5 = test system: SK-MEL-5
UACC-257 = test system: UACC-257
SF-295 = test system: SF-295
SN12C = test system: SN12C
EKVX = test system: EKVX
SNB-78 = test system: SNB-78
OVCAR-3 = test system: OVCAR-3
HL-60 = test system: HL-60
M19-MEL = test system: M19-MEL
TK-10 = test system: TK-10
SNB-75 = test system: SNB-75
ACHN = test system: ACHN
HOP-18 = test system: HOP-18
NCI-H226 = test system: NCI-H226
NCI-H460 = test system: NCI-H460
OVCAR-4 = test system: OVCAR-4
KM12 = test system: KM12
IGROV-1 = test system: IGROV-1
HCT-15 = test system: HCT-15
HOP-62 = test system: HOP-62
SF-539 = test system: SF-539
RXF 393 = test system: RXF 393
HOP-92 = test system: HOP-92
XF498 = test system: XF498
SR = test system: SR

Cc1cnc[nH]c1=O
GI50 (LOX IMVI): > 100 µM (inactive)
GI50 (RXF 631): > 100 µM (inactive)
GI50 (HCT-116): > 100 µM (inactive)
GI50 (K562): > 100 µM (inactive)
GI50 (COLO 205): > 100 µM (inactive)
GI50 (Malme-3M): > 100 µM (inactive)
GI50 (SK-OV-3): > 100 µM (inactive)
GI50 (RPMI-8226): > 100 µM (inactive)
GI50 (SK-MEL-2): > 100 µM (inactive)
GI50 (SK-MEL-28): > 100 µM (inactive)
GI50 (CCRF-CEM): > 100 µM (inactive)
GI50 (DMS-114): > 100 µM (inactive)
GI50 (DLD-1): > 100 µM (inactive)
GI50 (KM-20L2): > 100 µM (inactive)
GI50 (LXFL 529): > 100 µM (inactive)
GI50 (M14): > 100 µM (inactive)
GI50 (NCI-H522): > 100 µM (inactive)
GI50 (MOLT-4): > 100 µM (inactive)
GI50 (SW-620): > 100 µM (inactive)
GI50 (DMS-273): > 100 µM (inactive)
GI50 (UACC-62): > 100 µM (inactive)
GI50 (HCC 2998): > 100 µM (inactive)
GI50 (CAKI-1): > 100 µM (inactive)
GI50 (NCI-H23): > 100 µM (inactive)
GI50 (SF-268): > 100 µM (inactive)
GI50 (SNB-19): > 100 µM (inactive)
GI50 (UO-31): > 100 µM (inactive)
GI50 (786-0): > 100 µM (inactive)
GI50 (A549): > 100 µM (inactive)
GI50 (HT-29): > 100 µM (inactive)
GI50 (U-251): > 100 µM (inactive)
GI50 (A498): > 100 µM (inactive)
GI50 (OVCAR-8): > 100 µM (inactive)
GI50 (OVCAR-5): > 100 µM (inactive)
GI50 (SK-MEL-5): > 100 µM (inactive)
GI50 (UACC-257): > 100 µM (inactive)
GI50 (SF-295): > 100 µM (inactive)
GI50 (SN12C): > 100 µM (inactive)
GI50 (EKVX): > 100 µM (inactive)
GI50 (SNB-78): > 100 µM (inactive)
GI50 (OVCAR-3): > 100 µM (inactive)
GI50 (HL-60): > 100 µM (inactive)
GI50 (M19-MEL): > 100 µM (inactive)
GI50 (TK-10): > 100 µM (inactive)
GI50 (SNB-75): > 100 µM (inactive)
GI50 (ACHN): > 100 µM (inactive)
GI50 (HOP-18): > 100 µM (inactive)
GI50 (NCI-H226): > 100 µM (inactive)
GI50 (NCI-H460): > 100 µM (inactive)
GI50 (OVCAR-4): > 100 µM (inactive)
GI50 (KM12): > 100 µM (inactive)
GI50 (IGROV-1): > 100 µM (inactive)
GI50 (HCT-15): > 100 µM
GI50 (HOP-62): > 100 µM (inactive)

Nc1cc2c3c(cccc3c1)C(=O)N(CCN1CCN(CCN3C(=O)c4cccc5cc(N)cc(c45)C3=O)CC1)C2=O
GI50 (RXF 631): > 100 µM (inactive)
GI50 (HCT-116): 67.6 µM (inactive)
GI50 (K562): > 100 µM (inactive)
GI50 (COLO 205): > 100 µM (inactive)
GI50 (Malme-3M): > 100 µM (inactive)
GI50 (SK-OV-3): > 100 µM (inactive)
GI50 (RPMI-8226): > 100 µM (inactive)
GI50 (SK-MEL-2): > 100 µM (inactive)
GI50 (SF-539): > 100 µM (inactive)
GI50 (SK-MEL-28): > 100 µM (inactive)
GI50 (CCRF-CEM): > 100 µM (inactive)
GI50 (DMS-114): > 100 µM (inactive)
GI50 (RXF 393): > 100 µM (inactive)
GI50 (KM-20L2): > 100 µM (inactive)
GI50 (LXFL 529): 67 µM (inactive)
GI50 (M14): 98.9 µM (inactive)
GI50 (NCI-H522): > 100 µM (inactive)
GI50 (MOLT-4): 25.3 µM (inactive)
GI50 (SW-620): 38.8 µM (inactive)
GI50 (HOP-92): > 100 µM (inactive)
GI50 (DMS-273): > 100 µM (inactive)
GI50 (UACC-62): > 100 µM (inactive)
GI50 (HCC 2998): > 100 µM (inactive)
GI50 (CAKI-1): > 100 µM (inactive)
GI50 (NCI-H23): > 100 µM (inactive)
GI50 (SF-268): 91.2 µM (inactive)
GI50 (SNB-19): 76.2 µM (inactive)
GI50 (UO-31): 37.9 µM (inactive)
GI50 (786-0): > 100 µM (inactive)
GI50 (A549): 46.3 µM (inactive)
GI50 (HT-29): 32 µM (inactive)
GI50 (XF498): > 100 µM (inactive)
GI50 (U-251): > 100 µM (inactive)
GI50 (A498): > 100 µM (inactive)
GI50 (OVCAR-8): 74.3 µM (inactive)
GI50 (OVCAR-5): > 100 µM (inactive)
GI50 (SK-MEL-5): > 100 µM (inactive)
GI50 (UACC-257): > 100 µM (inactive)
GI50 (SF-295): 97.1 µM (inactive)
GI50 (SN12C): > 100 µM (inactive)
GI50 (EKVX): > 100 µM (inactive)
GI50 (OVCAR-3): > 100 µM (inactive)
GI50 (HL-60): > 100 µM (inactive)
GI50 (M19-MEL): > 100 µM (inactive)
GI50 (TK-10): > 100 µM (inactive)
GI50 (SNB-75): > 100 µM (inactive)
GI50 (ACHN): > 100 µM (inactive)
GI50 (HOP-18): > 100 µM (inactive)
GI50 (NCI-H226): 31.5 µM (inactive)
GI50 (NCI-H460): 33.3 µM (inactive)
GI50 (OVCAR-4): > 100 µM (inactive)
GI50 (KM12): > 100 µM (inactive)
GI50 (IGROV-1): > 100 µM (inactive)
GI50 (HCT-15): > 100 µM
GI50 (HOP-62): > 100 µM (inactive)

CSc1ccc2c(cc1=O)C(NC(=O)c1ccc(C#N)cc1)CCc1cc(O)c(O)c(O)c1-2 (stereo not given)
GI50 (RXF 631): 49.8 µM (inactive)
GI50 (HCT-116): 18.4 µM (inactive)
GI50 (K562): 7.26 µM (inactive)
GI50 (COLO 205): 19.6 µM (inactive)
GI50 (Malme-3M): > 100 µM (inactive)
GI50 (SK-OV-3): 27.4 µM (inactive)
GI50 (SF-539): 15.5 µM (inactive)
GI50 (SK-MEL-28): > 100 µM (inactive)
GI50 (CCRF-CEM): 9.66 µM (inactive)
GI50 (DMS-114): 14.8 µM (inactive)
GI50 (DLD-1): 23.1 µM (inactive)
GI50 (KM-20L2): 24.7 µM (inactive)
GI50 (LXFL 529): 19.8 µM (inactive)
GI50 (M14): 30 µM (inactive)
GI50 (NCI-H522): 15.7 µM (inactive)
GI50 (MOLT-4): 22.5 µM (inactive)
GI50 (SW-620): 19.5 µM (inactive)
GI50 (DMS-273): 34.9 µM (inactive)
GI50 (UACC-62): 19.3 µM (inactive)
GI50 (HCC 2998): 21.8 µM (inactive)
GI50 (NCI-H23): 27.6 µM (inactive)
GI50 (SF-268): 43.4 µM (inactive)
GI50 (SNB-19): 41.9 µM (inactive)
GI50 (UO-31): 75.9 µM (inactive)
GI50 (786-0): 37.2 µM (inactive)
GI50 (A549): 44.4 µM (inactive)
GI50 (HT-29): 29 µM (inactive)
GI50 (XF498): 26.8 µM (inactive)
GI50 (U-251): 19.5 µM (inactive)
GI50 (A498): 44.5 µM (inactive)
GI50 (OVCAR-8): 30.5 µM (inactive)
GI50 (OVCAR-5): > 100 µM (inactive)
GI50 (SK-MEL-5): 15.4 µM (inactive)
GI50 (SR): 11.7 µM (inactive)
GI50 (UACC-257): 12.2 µM (inactive)
GI50 (SF-295): 27.2 µM (inactive)
GI50 (SN12C): 19.8 µM (inactive)
GI50 (EKVX): 22.4 µM (inactive)
GI50 (SNB-78): 5.58 µM (inactive)
GI50 (OVCAR-3): 36.6 µM (inactive)
GI50 (HL-60): 20.1 µM (inactive)
GI50 (M19-MEL): 11.9 µM (inactive)
GI50 (TK-10): 63 µM (inactive)
GI50 (SNB-75): 4.2 µM (inactive)
GI50 (ACHN): > 100 µM (inactive)
GI50 (NCI-H226): 26.2 µM (inactive)
GI50 (NCI-H460): 27.6 µM (inactive)
GI50 (OVCAR-4): 12.1 µM (inactive)
GI50 (KM12): 33.7 µM (inactive)
GI50 (HCT-15): 19 µM
GI50 (HOP-62): > 100 µM (inactive)
